Measurements taken from patent US9921224B2, “Use of CD36 to identify cancer subjects for treatment” (Children's Medical Center Corporation, priority 2013, dated 2018).
Where no end group is shown, it is not given here. [ ]: non-standard residue; d: D form.

Experiments:
[1] = tested on: LLC cells; experiment: In vitro cell proliferation (MTT) assay, LLC cells; type: cell-based, murine; conditions: 48 hours after addition of serially diluted amounts
Description: Cell proliferation was measured using the MTT (3-{4,5-Dimethylthiazol-2-yl}-2,5-diphenyltetrazolium bromide, Sigma-Aldrich) assay. Cells were seeded in 50 uL growth medium in 96 well culture plates and allowed to attach overnight. 50 uL of growth medium plus two-fold concentrated treatment reagents were then added. After each treatment time point, 10 uL of 5% MTT solution (buffered in PBS) was added to each well. Plates were incubated for an additional 4 h at 37° C. to allow MTT to be metabolically converted into formazan crystals at cell mitochondria. The formazan crystals were finally solubilized by adding 100 ul of 10% Sodium Dodecyl Sulphate in 50% N—N-Dimethylformamide to each microplate well. Absorbances at 550 and 680 nm (corresponding to formazan salt and reference wavelengths, respectively) were measured using a colorimetry microplate reader. Wells containing only complete medium were used as controls. Each experiment was performed twice, using six replicates for each drug concentration.
To test this, LLC cells were treated with either recombinant Tsp-1 or DWLPK (SEQ ID NO: 2) Psap peptide and cell proliferation was measured using an MTT assay. […] This supports the hypothesis that Tsp-1 can act directly on cancer cells, as this assay was performed in vitro in the absence of any blood vessels.

[2] = tested on: Ovarian cancer cells expressing CD36; experiment: Viability of ovarian cancer cells expressing CD36 treated with Tsp-1; type: cell-based; conditions: Tsp-1 100 ng, 500 ng or 1000 ng; 0 hours or 48 hours
Description: Ovarian cancer cells expressing CD36 were treated with either control or thrombospondin (Tsp-1, either 100 ng, 500 ng or 1000 ng) and the percent of viable cells was measured at 0 hours or 48 hours.

[3] = tested on: ovarian cancer cells expressing luciferase; experiment: Ovarian cancer mouse model (luciferase intensity); type: in vivo; conditions: high CD36 ovarian cancer model
Description: For the ovarian cancer mouse model, 1 million ovarian cancer cells expressing luciferase were injected intraperitoneally. Treatment was initiated 17 days later with cisplatin (4 mg/kg QOD), the psap peptide dWlP (SEQ ID NO: 47, 40 mg/kg QD), a combination of cisplatin and psap peptide, or PBS QD. Luciferase intensity was measured on several days beginning on about day 17 and measured over time.

[4] = tested on: AsPc1 human pancreatic cells; experiment: Pancreatic cancer mouse model; type: in vivo, SCID mice; conditions: for primary tumor mass: high CD36 AsPC pancreatic model, SCID mice, 20 or 40 mg/kg/day, from day 25 daily for 21 days
Description: For the pancreatic cancer mouse model, 1×10^6 AsPc1 human pancreatic cells were injected into the pancreas of SCID mice. Mice were treated either with a control or with the psap peptide dWlP (SEQ ID NO: 47, 20 mg/kg/day or 40/mg/kg/day). Treatment began on day 25 and continued daily for 21 days. The mice were then euthanized and the primary tumor mass was measured. The presence or absence of ascites was also measured.

[5] = tested on: B16-B16 cells; experiment: Melanoma mouse model; type: in vivo, mice; conditions: low CD36 B16-B16 melanoma; 10 or 40 mg/kg; up to about 20-25 days post cell injection
Description: For the melanoma mouse model, B16-B16 cells were injected into mice. Mice were treated with either psap peptide dWlP (SEQ ID NO: 47, 10 or 40 mg/kg) or control. The volume of the tumor was measured over time up until about 20-25 days post cell injection.

Substance	cell proliferation (MTT assay) [1]	percent of viable cells (Tsp-1 mediated cell killing) [2]	metastatic disease ([3]; dWlP 40 mg/kg QD)	tumor response (luciferase intensity over time) ([3]; dWlP 40 mg/kg QD from day 17)	primary tumor mass [4]	primary tumor mass ([4]; listed as psap peptide)	mice that form ascites (inhibition of metastasis) ([4]; pancreatic cancer model, control: 4 of 10 mice)	tumor growth (tumor volume over time) [5]
DWLPK: DWLPK (SEQ ID NO: 2) Psap peptide, derived from a fragment of Saposin A (Psap peptide)	did not affect cell proliferation	–	–	–	–	–	–	–
Tsp-1: recombinant thrombospondin (Tsp-1), a ligand of CD36	capable of decreasing cell proliferation	sensitive to Tsp-1 mediated cell killing in a dose-dependent manner	–	–	–	–	–	–
dWlP: psap peptide dWlP (SEQ ID NO: 47); lower case D and L indicate D-amino acids ([dD]W[dL]P)	–	–	showed regression of metastatic disease	caused regression of cancer	primary tumor mass was inhibited	regressed	1 of 19	inhibited tumor growth but did not regress the tumor
